Data reported in the NIST ThermoML archive (doi:10.1016/j.fluid.2012.06.014).
± gives the expanded uncertainty stated by the source.

Conditions: for viscosity / mass density: 101.33 kPa, Liquid; for viscosity: Capillary tube (Ostwald / Ubbelohde) method; for mass density: Vibrating tube method

SMILES: CCCCCCn1cc[n+](C)c1.N#C[B-](C#N)(C#N)C#N [1-hexyl-3-methylimidazolium tetracyanoborate]
- viscosity (293.15 K): 66.61 ± 0.82 mPa·s
- mass density (293.15 K): 993.4 ± 0.2 kg/m3
- surface tension liquid-gas (298.15 K, Pendant drop shape): 41.1 ± 0.7 mN/m
- viscosity (298.15 K): 49.8 ± 0.65 mPa·s
- mass density (298.15 K): 989.8 ± 0.2 kg/m3
- viscosity (303.15 K): 38.92 ± 0.47 mPa·s
- mass density (303.15 K): 986.2 ± 0.2 kg/m3
- viscosity (308.15 K): 31.04 ± 0.37 mPa·s
- mass density (308.15 K): 982.7 ± 0.2 kg/m3
- viscosity (313.15 K): 25.2 ± 0.3 mPa·s
- mass density (313.15 K): 979.1 ± 0.2 kg/m3
- viscosity (318.15 K): 20.8 ± 0.26 mPa·s
- mass density (318.15 K): 975.6 ± 0.2 kg/m3
- viscosity (323.15 K): 17.41 ± 0.23 mPa·s
- mass density (323.15 K): 972.1 ± 0.2 kg/m3
- viscosity (328.14 K): 14.76 ± 0.21 mPa·s
- mass density (328.14 K): 968.6 ± 0.2 kg/m3
- viscosity (333.14 K): 12.66 ± 0.2 mPa·s
- mass density (333.14 K): 965.2 ± 0.2 kg/m3
- viscosity (338.14 K): 10.97 ± 0.19 mPa·s
- mass density (338.14 K): 961.7 ± 0.2 kg/m3
- viscosity (343.14 K): 9.584 ± 0.18 mPa·s
- mass density (343.14 K): 958.3 ± 0.2 kg/m3
- viscosity (348.14 K): 8.445 ± 0.17 mPa·s
- mass density (348.14 K): 954.9 ± 0.2 kg/m3
- viscosity (353.15 K): 7.497 ± 0.17 mPa·s
- mass density (353.15 K): 951.5 ± 0.2 kg/m3
- viscosity (358.14 K): 6.701 ± 0.17 mPa·s
- mass density (358.14 K): 948.1 ± 0.2 kg/m3
- viscosity (363.14 K): 6.026 ± 0.17 mPa·s
- mass density (363.14 K): 944.8 ± 0.2 kg/m3
